From patent US20200140444A1, “INHIBITORS OF MUTANT ISOCITRATE DEHYDROGENASES AND COMPOSITIONS AND METHODS THEREOF” (IsoCure Biosciences Inc., priority 2017, published 2020) come the findings set out here.

The target of one test is IDH1 (R132C) (Homo sapiens, UniProt O75874, R132C). Briefly: IDH enzyme assay, NADPH production or depletion measured by diaphorase/resazurin coupled detection. Format: biochemical. The conditions noted are these: read-out: Compound IC50 (M) IDH1 (R132C). The procedure: (§1) Compounds were tested against 2 enzymes.
Chain of IDH1 (R132C) (O75874 whole entry R132C): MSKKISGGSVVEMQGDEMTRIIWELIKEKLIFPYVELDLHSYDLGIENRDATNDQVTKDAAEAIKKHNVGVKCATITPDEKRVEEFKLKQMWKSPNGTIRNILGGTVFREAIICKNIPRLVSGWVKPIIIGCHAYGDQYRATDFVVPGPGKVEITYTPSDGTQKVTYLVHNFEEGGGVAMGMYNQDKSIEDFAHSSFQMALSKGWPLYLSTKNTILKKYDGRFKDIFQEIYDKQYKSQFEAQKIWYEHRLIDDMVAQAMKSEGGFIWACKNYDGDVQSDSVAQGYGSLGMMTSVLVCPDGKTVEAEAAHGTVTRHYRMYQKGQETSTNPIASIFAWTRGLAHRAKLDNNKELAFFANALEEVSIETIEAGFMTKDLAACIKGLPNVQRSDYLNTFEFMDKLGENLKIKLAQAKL
(§2) The production or depletion of NADPH by IDH enzymes was measured by diaphorase/resazurin coupled detection.

The target of another test is IDH1 (R132H) (Homo sapiens, UniProt O75874, R132H). The test is described as above. Format: biochemical. The settings on record: read-out: Compound IC50 (M) IDH1 (R132H). The method, then:
as §1, §2

Chain of IDH1 (R132H) (O75874 whole entry R132H): as the sequence (O75874 whole entry R132C) above, with C132H counted along it

Turning to `Cc1cccc(NC(=O)c2nc(Cc3ccccc3)n3c2CN(C(=O)c2ccc[nH]2)CC3)c1` [Compound 5-1, 3-benzyl-7-(1H-pyrrole-2-carbonyl)-N-(m-tolyl)-5,6,7,8-tetrahydroimidazo[1,5-a]pyrazine-1-carboxamide], the IC50 was found to be 3.1e-06 M at IDH1 (R132C) and 5.36e-07 M at IDH1 (R132H).

In the case of `C[C@H](O)c1cccc(NC(=O)c2nc(Cc3ccccc3)n3c2CN(C(=O)c2ccc[nH]2)CC3)c1` [Compound 5-2, (S)-3-benzyl-N-(3-(1-hydroxyethyl)phenyl)-7-(1H-pyrrole-2-carbonyl)-5,6,7,8-tetrahydroimidazo[1,5-a]pyrazine-1-carboxamide], at IDH1 (R132H), the half-inhibitory concentration (IC50) worked out at 1.64e-06 M.
